Assay results as given in patent US7888025B2, “Intestinal folate transporter method” (Albert Einstein College of Medicine of Yeshiva University, priority 2007, dated 2011).
“Also recorded” adds a separate entry of the source. Where two headings read alike, the source gives them in different places.

Tests used:
[1] = biological target: T1, low-pH folate transporter (Homo sapiens, UniProt Q96NT5); conditions: cited from earlier work
T1 construct: host or cells: HeLa and other cells
T1 sequence (Q96NT5 1-459): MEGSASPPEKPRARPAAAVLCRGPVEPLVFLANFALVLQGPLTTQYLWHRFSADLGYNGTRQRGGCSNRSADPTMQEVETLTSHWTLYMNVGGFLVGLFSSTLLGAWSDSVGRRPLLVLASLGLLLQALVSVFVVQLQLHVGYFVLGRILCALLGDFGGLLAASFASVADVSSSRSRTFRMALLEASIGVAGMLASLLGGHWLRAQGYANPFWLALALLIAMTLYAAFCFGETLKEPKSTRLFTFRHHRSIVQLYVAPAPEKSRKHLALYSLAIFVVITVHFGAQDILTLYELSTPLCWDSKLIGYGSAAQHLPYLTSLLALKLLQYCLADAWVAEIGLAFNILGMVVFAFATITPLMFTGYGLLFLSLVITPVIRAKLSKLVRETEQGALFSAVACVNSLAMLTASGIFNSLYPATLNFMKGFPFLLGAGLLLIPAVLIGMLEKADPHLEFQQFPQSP

[2] = biological target: T2, reduced folate carrier (SLC19A1) (Homo sapiens, UniProt P41440); conditions: cited from earlier work
T2 sequence (P41440 1-591): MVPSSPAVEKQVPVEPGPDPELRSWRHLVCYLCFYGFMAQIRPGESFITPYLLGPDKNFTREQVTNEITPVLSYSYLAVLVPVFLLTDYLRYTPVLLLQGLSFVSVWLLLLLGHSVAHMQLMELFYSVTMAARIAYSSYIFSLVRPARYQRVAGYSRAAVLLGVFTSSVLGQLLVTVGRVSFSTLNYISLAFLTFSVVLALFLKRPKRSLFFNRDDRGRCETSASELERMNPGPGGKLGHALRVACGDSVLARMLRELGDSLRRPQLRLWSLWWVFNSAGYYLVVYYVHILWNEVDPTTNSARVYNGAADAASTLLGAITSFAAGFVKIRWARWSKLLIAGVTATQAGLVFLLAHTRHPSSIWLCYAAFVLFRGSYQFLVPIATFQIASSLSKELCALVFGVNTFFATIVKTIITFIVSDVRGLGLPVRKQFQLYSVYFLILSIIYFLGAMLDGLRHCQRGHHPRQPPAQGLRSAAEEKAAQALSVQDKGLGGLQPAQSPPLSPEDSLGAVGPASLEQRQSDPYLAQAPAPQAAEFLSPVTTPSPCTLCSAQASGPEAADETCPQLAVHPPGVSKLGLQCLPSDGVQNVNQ

[3] = biological target: T3, G21 (PCFT) (Homo sapiens, UniProt Q96NT5); assay: Inhibition of [3H]folic acid uptake into G21 cRNA-injected Xenopus oocytes; assay type: cell-based; conditions: for inhibitory effect on uptake of 2 μM [3H]folic acid: 20 μM nonlabeled compound, pH 5.5, 30 min
T3 construct: expressed in transfected cells; host or cells: Xenopus laevis oocytes injected with capped G21 cRNA (pSPT64, SP6)
T3 sequence (Q96NT5 1-459): T1 sequence (Q96NT5 1-459)
Method: Uptake studies in Xenopus oocytes. […] Radiotracer uptake was determined 3 or 4 days later. […] Uptake was halted by the addition of ice-cold MBS (pH 7.5). Oocytes were washed 10 times thereafter, and solubilized with 10% SDS for measurement of radioactivity. To collapse the pH gradient across the oocyte membrane, seven to 10 oocytes were incubated in MBS (pH 5.5) containing 0, 10, 20, 40, 60 μM FCCP for 20 min, and uptake of transport substrates assessed at pH 5.5.

[4] = test system: rat jejunum brush border membranes; conditions: read-out: uptake Km, cited from earlier work
[5] = biological target: T3, G21 (PCFT); assay: Uptake of tritiated folates in G21 cRNA-injected Xenopus oocytes; assay type: cell-based
Method: (§1) Uptake studies in Xenopus oocytes. Defolliculated Xenopus laevis oocytes were prepared as described (Jansen and Akabas, 2006) and injected with 50 nl of water or G21 cRNA (30 ng). Radiotracer uptake was determined 3 or 4 days later. Seven to 10 oocytes were incubated in 500 μl of Modified Barth's Solution (MBS, in mM, 88 NaCl, 2.4 NaHCO3, 2.5 Na pyruvate, 1 KCl, 0.82 MgSO4, 0.41 CaCl2, 0.3 Ca(NO3)2, 15 MES or HEPES) and uptake of tritiated folate substrates assessed at room temperature. Uptake was halted by the addition of ice-cold MBS (pH 7.5). Oocytes were washed 10 times thereafter, and solubilized with 10% SDS for measurement of radioactivity. To collapse the pH gradient across the oocyte membrane, seven to 10 oocytes were incubated in MBS (pH 5.5) containing 0, 10, 20, 40, 60 μM FCCP for 20 min, and uptake of transport substrates assessed at pH 5.5.

[6] = biological target: T3, G21 (PCFT); assay: Two-electrode voltage-clamp electrophysiology in G21 cRNA-injected Xenopus oocytes; assay type: cell-based
Method: (§2) Electrophysiological analyses in Xenopus oocytes. Defolliculated oocytes were injected with 50 nl of water (control) or G21 cRNA (50 ng), and kept at 17° C. in horse serum medium (in mM, 82.5 NaCl, 2.5 KCl, 1 MgCl2, 2.3 CaCl2, 5 HEPES, 5% horse serum, pH 7.5). Electrophysiological recordings were conducted 3-7 days after cRNA injection in buffer (in mM, 90 NaCl, 1 KCl, 1 MgCl2, 1.8 CaCl2, 5 TRIS, 5 MES) as described previously (Jansen and Akabas, 2006). Oocyte holding potential was −80 mV for Km determination. For current-voltage (I-V) relationships, from a −60 mV holding potential step changes in membrane potential were applied for 2 s in 10 mV increments between −100 and 30 mV in the absence and presence of substrate.

[7] = biological target: T3, G21 (PCFT); assay: Inhibition of [3H]folic acid uptake in HepG2 cells stably transfected with G21 cDNA; assay type: cell-based; conditions: 100 μM inhibitor, pH 6.5, HepG2 cells
Method: Transfection. Transfection of plasmid DNA was performed in HepG2, HeLa, and Caco2 cells with Lipofectamine 2000 (Invitrogen). HepG2 cells, stably transfected with either pcDNA3.1(+) or pcDNA3.1(+)G21, were generated by G418 selection (600 μg/ml). Double selection with puromycin (5 μg/ml) and hygromycin (50 μg/ml) was adopted to obtain stably transfected Caco-2 cells with both G21-silencing shRNA vectors, or with both non-silencing negative control plasmids.
Transport of folates in HepG2, HeLa and Caco2 cells. Initial uptake of tritiated folates in HepG2, HeLa, or Caco2 cells was assessed using a protocol designed for rapid uptake determinations in cells growing in monolayer culture in liquid scintillation vials (Sharif and Goldman, 2000) except that cells were incubated at pH 7.4 and 37° C. for 20 min before initiation of uptake. Substrate uptake was normalized to protein content.

[8] = biological target: T4, HCP1 murine ortholog (Mus musculus, UniProt Q6PEM8, A402V); conditions: HeLa cells, read-out: Km for [55Fe]hemin uptake; cited from earlier work
T4 construct: host or cells: HeLa cells infected with a cDNA-containing adenovirus vector
T4 sequence (Q6PEM8 1-459 A402V): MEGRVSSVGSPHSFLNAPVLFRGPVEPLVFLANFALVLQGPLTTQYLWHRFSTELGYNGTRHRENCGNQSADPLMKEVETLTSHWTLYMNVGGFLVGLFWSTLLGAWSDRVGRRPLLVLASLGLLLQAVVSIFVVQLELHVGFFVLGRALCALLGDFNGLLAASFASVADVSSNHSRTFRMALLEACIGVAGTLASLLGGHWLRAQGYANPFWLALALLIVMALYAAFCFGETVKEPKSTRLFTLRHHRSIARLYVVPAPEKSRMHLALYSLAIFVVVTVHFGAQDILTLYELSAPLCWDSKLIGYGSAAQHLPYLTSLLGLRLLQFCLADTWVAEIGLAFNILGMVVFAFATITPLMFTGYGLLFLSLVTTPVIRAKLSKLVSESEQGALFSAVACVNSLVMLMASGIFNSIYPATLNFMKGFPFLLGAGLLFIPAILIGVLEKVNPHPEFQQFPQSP

[9] = substrate: CN(Cc1cnc2nc(N)nc(N)c2n1)c1ccc(C(=O)N[C@@H](CCC(=O)O)C(=O)O)cc1; assay: cells, lysate or membranes
[10] = substrate: Nc1nc2ncc(CNc3ccc(C(=O)N[C@@H](CCC(=O)O)C(=O)O)cc3)nc2c(=O)[nH]1; assay: Two-electrode voltage-clamp electrophysiology in G21 cRNA-injected Xenopus oocytes; assay type: cell-based, human; conditions: 17.0 °C
Method: as §2

[11] = substrate: Nc1nc2ncc(CNc3ccc(C(=O)N[C@@H](CCC(=O)O)C(=O)O)cc3)nc2c(=O)[nH]1; assay: Uptake of tritiated folates in G21 cRNA-injected Xenopus oocytes; assay type: cell-based, human
Method: as §1

[12] = pH 5.5, intestinal and other human cells
[13] = other: extracellular pH 5.5, pH 5.5
[14] = other: extracellular pH 6.0, pH 6.0
[15] = other: extracellular pH 6.5, pH 6.5
[16] = other: extracellular pH 7.0, pH 7.0
[17] = other: extracellular pH 7.5, pH 7.5

Nc1nc2ncc(CNc3ccc(C(=O)N[C@@H](CCC(=O)O)C(=O)O)cc3)nc2c(=O)[nH]1 [folic acid]
Ki [1, 12]: ~0.6 µM
Ki [2]: ~200 µM
inhibition at 100 µM ([3]; read-out: inhibition of 2 μM [3H]folic acid uptake, 100 μM inhibitor, pH 6.5, Xenopus oocytes): 92 ± 2%
Km ([4]; pH 5.5): 0.6 µM
Km ([4]; pH 7.4): 12.3 µM
decrease in Vmax ([5]; over the pH range of 5.5 to 6.5): 2.4 fold
uptake Vmax ([5]; pH 5.5, same batch of oocytes): 13 pmol/oocyte/hr
uptake Vmax ([5]; pH 7.5, same batch of oocytes): 5 pmol/oocyte/hr
increase in Km ([5]; pH increased from 5.5 to 7.0): 2.6 fold
increase in Km ([5]; pH increased from 7.0 to 7.5): 18 fold
current amplitude larger than (6S)5-MTHF-induced current ([6]; saturating concentrations, same oocyte, pH 5.5): 39±6%
inhibition at 100 µM ([7]; read-out: inhibition of 2 μM [3H]folic acid uptake): 90 ± 0.02%

Nc1nc(N)c2nc(CNc3ccc(C(=O)N[C@@H](CCCNC(=O)c4ccccc4C(=O)O)C(=O)O)cc3)cnc2n1 [PT523]
Ki ([1]; HeLa and other cells): > 50 µM
Ki [1, 12]: > 50 µM
Ki [2]: ~0.7 µM
inhibitory effect on uptake of 2 μM [3H]folic acid [3]: did not inhibit

hemin
Km [8]: 125 µM
inhibitory effect on uptake of 2 μM [3H]folic acid [3]: weak inhibitor
inhibition of 2 μM [3H]folic acid uptake ([3]; 100 μM inhibitor, pH 6.5, Xenopus oocytes): 42±7%
substrate-induced current ([6]; 100 μM hemin, with 0.1% bovine serum albumin or 200 μM arginine): no current could be detected; also recorded: unable to detect
inhibition of 2 μM [3H]folic acid uptake [7]: 30±5%

B1: G21 (PCFT) (Homo sapiens) (protein)
chain: T1 sequence (Q96NT5 1-459)
notes: expressed in transfected cells; host or cells: Xenopus laevis oocytes injected with capped G21 cRNA (pSPT64, SP6)
Km [9, 13]: 3.4 ± 0.8 (n = 3) μM
Km [9, 14]: 3.4 ± 0.5 (n = 3) μM
Km [9, 15]: 7.3 ± 0.6 (n = 3) μM
Km [9, 16]: 16.3 ± 2.8 (n = 4) μM
Km [9, 17]: 130.7 ± 11.6 (n = 3) μM
Km ([9]; other: pH 5.5, holding potential −80 mV, pH 5.5, 17.0 °C): 2.01 ± 0.16 µM
Km ([9]; other: pH 6.5, holding potential −80 mV, pH 6.5, 17.0 °C): 8.07 ± 0.60 µM
Km ([10]; other: pH 5.5, holding potential −80 mV, pH 5.5): 0.83 ± 0.05 µM
Km ([10]; other: pH 6.5, holding potential −80 mV, pH 6.5): 2.99 ± 0.09 µM
Km [11, 13]: 1.3 ± 0.1 µM
Km [11, 14]: 1.5 ± 0.1 (n = 2) μM
Km [11, 15]: 2.7 ± 0.2 (n = 3) μM
Km [11, 16]: 6.0 ± 2.6 (n = 2) μM
Km [11, 17]: 56.2 ± 5.6 µM
